In ChEMBL document CHEMBL1134446, “Polyamine analogue antidiarrheals: a structure-activity study” (J Med Chem, 2001):
“And” between values parts separate entries of the source, which are not always exact repeats. Equal values may be shown once.

Key:
Type in all cases: functional
Rattus norvegicus [1] = assay: Stool output of rat over the 6-h collection period when a dose of 0.0625 mg/kg (0.145 administered
Rattus norvegicus [2] = assay: Weight loss of rat over the 6-h experimental period when a dose of 4.97 mg/kg (11.6 administered
Rattus norvegicus [3] = assay: Stool output of rat over the 6-h collection period when a dose of 0.125 mg/kg (0.29 administered
Rattus norvegicus [4] = assay: Weight loss of rat over the 6-h experimental period when a dose of 0.5 mg/kg (1.16 administered
Rattus norvegicus [5] = assay: Percent reduction was determined by using the ratio of mean of treated animal to that of control animal at a dose of 0.25 mg/kg
Rattus norvegicus [6] = assay: Stool output of rat over the 6-h collection period when a dose of 0 mg/kg (0 administered
Rattus norvegicus [7] = assay: Stool output of rat over the 6-h collection period when a dose of 0.25 mg/kg (0.58 administered
Rattus norvegicus [8] = assay: Stool output of rat over the 6-h collection period when a dose of 0.0078 mg/kg (0.0181 administered
Rattus norvegicus [9] = assay: Weight loss of rat over the 6-h experimental period when a dose of 0 mg/kg (0 administered
Rattus norvegicus [10] = assay: Percent reduction was determined by using the ratio of mean of treated animal to that of control animal at a dose of 0.99 mg/kg
Rattus norvegicus [11] = assay: Weight loss of rat over the 6-h experimental period when a dose of 0.125 mg/kg (0.29 administered
Rattus norvegicus [12] = assay: Percent reduction was determined by using the ratio of mean of treated animal to that of control animal at a dose of 0.03125 mg/kg
Rattus norvegicus [13] = assay: Stool output of rat over the 6-h collection period when a dose of 4.97 mg/kg (11.6 uMl) was administered
Rattus norvegicus [14] = assay: Percent reduction was determined by using the ratio of mean of treated animal to that of control animal at a dose of 0.0078 mg/kg
Rattus norvegicus [15] = assay: Percent reduction was determined by using the ratio of mean of treated animal to that of control animal at a dose of 0.125 mg/kg
Rattus norvegicus [16] = assay: Percent reduction was determined by using the ratio of mean of treated animal to that of control animal at a dose of 0.0156 mg/kg
Rattus norvegicus [17] = assay: Weight loss of rat over the 6-h experimental period when a dose of 0.03125 mg/kg (0.0726 administered
Rattus norvegicus [18] = assay: Weight loss of rat over the 6-h experimental period when a dose of 0.99 mg/kg (2.3 administered
Rattus norvegicus [19] = assay: Weight loss of rat over the 6-h experimental period when a dose of 0.25 mg/kg (0.58 administered
Rattus norvegicus [20] = assay: Weight loss of rat over the 6-h experimental period when a dose of 0.0078 mg/kg (0.0181 administered
Rattus norvegicus [21] = assay: Stool output of rat over the 6-h collection period when a dose of 0.99 mg/kg (2.3 administered
Rattus norvegicus [22] = assay: Stool output of rat over the 6-h collection period when a dose of 0.0156 mg/kg (0.036 administered
Rattus norvegicus [23] = assay: Percent reduction was determined by using the ratio of mean of treated animal to that of control animal at a dose of 0.0625 mg/kg
Rattus norvegicus [24] = assay: Percent reduction was determined by using the ratio of mean of treated animal to that of control animal at a dose of 4.97 mg/kg
Rattus norvegicus [25] = assay: Weight loss of rat over the 6-h experimental period when a dose of 0.0625 mg/kg (0.145 administered
Rattus norvegicus [26] = assay: Weight loss of rat over the 6-h experimental period when a dose of 0.0156 mg/kg (0.036 administered
Rattus norvegicus [27] = assay: Weight loss of rat over the 6-h experimental period when a dose of 24.87 mg/kg (57.8 administered
Rattus norvegicus [28] = assay: Percent reduction was determined by using the ratio of mean of treated animal to that of control animal at a dose of 24.87 mg/kg
Rattus norvegicus [29] = assay: Stool output of rat over the 6-h collection period when a dose of 0.03125 mg/kg (0.0726 administered
Rattus norvegicus [30] = assay: Stool output of rat over the 6-h collection period when a dose of 0.5 mg/kg (1.16 administered
Rattus norvegicus [31] = assay: Stool output of rat over the 6-h collection period when a dose of 24.87 mg/kg (57.8 administered
Rattus norvegicus [32] = assay: Percent reduction was determined by using the ratio of mean of treated animal to that of control animal at a dose of 0.5 mg/kg
Rattus norvegicus [33] = assay: Stool output of rat over the 6-h collection period when a dose of 1.1 mg/kg (2.3 administered
Rattus norvegicus [34] = assay: Stool output of rat over the 6-h collection period when a dose of 28.2 mg/kg (57.8 administered
Rattus norvegicus [35] = assay: Weight loss of rat over the 6-h experimental period when a dose of 28.2 mg/kg (57.8 administered
Rattus norvegicus [36] = assay: Stool output of rat over the 6-h collection period when a dose of 5.7 mg/kg (11.6 administered
Rattus norvegicus [37] = assay: Weight loss of rat over the 6-h experimental period when a dose of 5.7 mg/kg (11.6 administered
Rattus norvegicus [38] = assay: Weight loss of rat over the 6-h experimental period when a dose of 1.1 mg/kg (2.3 administered
Rattus norvegicus [39] = assay: Percent reduction was determined by using the ratio of mean of treated animal to that of control animal at a dose of 28.2 mg/kg

With `CCNCCCNC1CCC(NCCCNCC)CC1` (stereo unspecified) the Stool output (Rattus norvegicus [1]) was <0 g (350g of rat weight)-1, the Weight loss (Rattus norvegicus [2]) was under 1.6 g and the Stool output (Rattus norvegicus [3]) was <0 g (350g of rat weight)-1. The Weight loss (Rattus norvegicus [4]) was under 2.9 g, the Reduction (Rattus norvegicus [5]) was 77% and 100% and the Stool output (Rattus norvegicus [6]) was 4.9 g (350g of rat weight)-1. The Stool output (Rattus norvegicus [7]) was <0 g (350g of rat weight)-1, the Stool output (Rattus norvegicus [8]) was >3.6 g (350g of rat weight)-1 and the Weight loss (Rattus norvegicus [9]) was 11.6 g. For the same molecule, the Reduction (Rattus norvegicus [10]) was 77% and 100%, the Weight loss (Rattus norvegicus [11]) was under 4.1 g and the Reduction (Rattus norvegicus [12]) was 64% and 100%. The Stool output (Rattus norvegicus [13]) was <0 g (350g of rat weight)-1, the Reduction (Rattus norvegicus [14]) was 24% and the Reduction (Rattus norvegicus [15]) was 65% and 100%. The Reduction (Rattus norvegicus [16]) was 73% and 92%, the Weight loss (Rattus norvegicus [17]) was under 4.2 g and the Weight loss (Rattus norvegicus [18]) was under 2.7 g. The Weight loss (Rattus norvegicus [19]) was under 2.7 g, the Weight loss (Rattus norvegicus [20]) was under 8.8 g and the Stool output (Rattus norvegicus [21]) was <0 g (350g of rat weight)-1. For the same molecule, the Stool output (Rattus norvegicus [22]) was <0.4 g (350g of rat weight)-1, the Reduction (Rattus norvegicus [23]) was 68% and 100% and the Reduction (Rattus norvegicus [24]) was 86% and 100%. For the same molecule, the Weight loss (Rattus norvegicus [25]) was under 3.7 g, the Weight loss (Rattus norvegicus [26]) was under 3.1 g and the Weight loss (Rattus norvegicus [27]) was under 0.8 g. For the same molecule, the Reduction (Rattus norvegicus [28]) was 93% and 100%, the Stool output (Rattus norvegicus [29]) was <0 g (350g of rat weight)-1 and the Stool output (Rattus norvegicus [30]) was <0 g (350g of rat weight)-1. The Stool output (Rattus norvegicus [31]) was <0 g (350g of rat weight)-1 and the Reduction (Rattus norvegicus [32]) was 75% and 100%.
For `CC(C)CCNCCCNCCCCNCCCNCCC(C)C`, the Stool output (Rattus norvegicus [33]) was >4.9 g (350g of rat weight)-1, the Stool output (Rattus norvegicus [6]) was 4.6 g (350g of rat weight)-1 and the Weight loss (Rattus norvegicus [9]) was 14.6 g. For the same molecule, the Stool output (Rattus norvegicus [34]) was <0 g (350g of rat weight)-1, the Weight loss (Rattus norvegicus [35]) was under 1.6 g and the Stool output (Rattus norvegicus [36]) was >7.8 g (350g of rat weight)-1. For the same molecule, the Weight loss (Rattus norvegicus [37]) was over 18.3 g, the Weight loss (Rattus norvegicus [38]) was over 14.2 g and the Reduction (Rattus norvegicus [39]) was 89% and 100%.
